From patent US20090203707A1, “METHODS FOR TREATING PAIN” (priority 2008, published 2009)

Target: SCN9A (Nav1.7) Na+ channel, α- and β1 subunits, in HEK293 cells (Homo sapiens, UniProt Q15858)
Test: Whole-cell patch clamp, Nav1.7 peak INa in HEK293 cells (Example 1)
Settings: 0.1 Hz; for Mean amplitude of Nav1.7 peak INa, fraction of control: −100 mV to 0 mV, 50 msec; for p of logistic fit (Hill coefficient nH) for block of Nav1.7 peak INa / x0 of logistic fit (IC50) for block of Nav1.7 peak INa: holding −100 mV to 0 mV

SCN9A (Nav1.7) Na+ channel, α- and β1 subunits, in HEK293 cells, sequence (Q15858 whole entry): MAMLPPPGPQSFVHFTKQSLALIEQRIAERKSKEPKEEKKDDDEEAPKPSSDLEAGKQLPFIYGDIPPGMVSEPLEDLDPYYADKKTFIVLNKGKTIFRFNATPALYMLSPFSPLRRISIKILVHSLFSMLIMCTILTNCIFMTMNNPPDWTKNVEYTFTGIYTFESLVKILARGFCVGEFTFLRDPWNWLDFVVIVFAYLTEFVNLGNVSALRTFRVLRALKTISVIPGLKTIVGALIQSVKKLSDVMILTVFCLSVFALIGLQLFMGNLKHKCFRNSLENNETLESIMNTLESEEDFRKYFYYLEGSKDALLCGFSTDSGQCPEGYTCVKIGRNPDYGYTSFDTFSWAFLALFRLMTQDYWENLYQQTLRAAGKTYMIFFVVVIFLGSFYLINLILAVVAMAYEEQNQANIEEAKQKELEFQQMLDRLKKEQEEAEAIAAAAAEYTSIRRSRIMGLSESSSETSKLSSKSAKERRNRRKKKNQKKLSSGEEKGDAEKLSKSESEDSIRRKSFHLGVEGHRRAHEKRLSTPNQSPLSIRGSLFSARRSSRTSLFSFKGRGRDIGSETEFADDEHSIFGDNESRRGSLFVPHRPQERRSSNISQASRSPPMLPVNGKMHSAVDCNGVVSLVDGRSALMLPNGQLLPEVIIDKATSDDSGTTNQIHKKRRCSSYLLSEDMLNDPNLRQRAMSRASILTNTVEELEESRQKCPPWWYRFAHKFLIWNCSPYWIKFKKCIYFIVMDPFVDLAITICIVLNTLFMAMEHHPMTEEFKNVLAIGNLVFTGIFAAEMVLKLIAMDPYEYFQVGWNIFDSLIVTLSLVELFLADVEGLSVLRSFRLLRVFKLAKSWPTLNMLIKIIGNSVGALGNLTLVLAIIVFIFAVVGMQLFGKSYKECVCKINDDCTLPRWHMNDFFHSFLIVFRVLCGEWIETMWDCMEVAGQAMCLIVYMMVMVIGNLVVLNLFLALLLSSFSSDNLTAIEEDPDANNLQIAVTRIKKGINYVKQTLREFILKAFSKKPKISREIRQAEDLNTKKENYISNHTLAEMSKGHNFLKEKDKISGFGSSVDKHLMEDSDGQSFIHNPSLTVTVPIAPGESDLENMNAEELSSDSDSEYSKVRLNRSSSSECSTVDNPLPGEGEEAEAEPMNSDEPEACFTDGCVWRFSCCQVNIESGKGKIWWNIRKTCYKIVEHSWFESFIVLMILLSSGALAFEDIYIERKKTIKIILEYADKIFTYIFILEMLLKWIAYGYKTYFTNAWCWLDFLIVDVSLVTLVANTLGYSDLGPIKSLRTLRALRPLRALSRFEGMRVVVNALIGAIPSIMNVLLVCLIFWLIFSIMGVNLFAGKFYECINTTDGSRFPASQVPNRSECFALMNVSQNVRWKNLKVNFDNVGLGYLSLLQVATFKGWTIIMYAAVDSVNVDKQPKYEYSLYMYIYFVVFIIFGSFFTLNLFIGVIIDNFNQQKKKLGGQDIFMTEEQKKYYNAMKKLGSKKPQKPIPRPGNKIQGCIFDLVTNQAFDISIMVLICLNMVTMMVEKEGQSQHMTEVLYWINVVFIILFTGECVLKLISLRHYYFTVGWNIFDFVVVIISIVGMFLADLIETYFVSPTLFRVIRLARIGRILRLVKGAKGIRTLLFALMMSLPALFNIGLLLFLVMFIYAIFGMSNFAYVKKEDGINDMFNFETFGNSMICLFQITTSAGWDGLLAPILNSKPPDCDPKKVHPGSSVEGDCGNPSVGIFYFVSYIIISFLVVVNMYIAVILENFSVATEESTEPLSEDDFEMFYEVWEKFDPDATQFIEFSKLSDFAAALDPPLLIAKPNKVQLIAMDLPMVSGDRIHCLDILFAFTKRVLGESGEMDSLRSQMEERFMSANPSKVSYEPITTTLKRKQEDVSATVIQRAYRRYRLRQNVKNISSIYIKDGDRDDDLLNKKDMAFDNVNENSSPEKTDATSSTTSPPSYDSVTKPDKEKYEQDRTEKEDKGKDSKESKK
SCN9A (Nav1.7) Na+ channel, α- and β1 subunits, in HEK293 cells, sequence (Q07699 19-218 partner): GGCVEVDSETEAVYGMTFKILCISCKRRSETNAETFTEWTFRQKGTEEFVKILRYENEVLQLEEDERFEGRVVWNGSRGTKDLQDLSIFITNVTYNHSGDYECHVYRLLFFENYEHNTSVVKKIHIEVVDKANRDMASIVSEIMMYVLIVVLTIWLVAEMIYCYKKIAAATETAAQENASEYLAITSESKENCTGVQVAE

Mean amplitude of Nav1.7 peak INa, fraction of control (1 μM)	Mean amplitude of Nav1.7 peak INa, fraction of control (3 μM)	Mean amplitude of Nav1.7 peak INa, fraction of control (10 μM)	Mean amplitude of Nav1.7 peak INa, fraction of control (30 μM)	Mean amplitude of Nav1.7 peak INa, fraction of control (100 μM)	p of logistic fit (Hill coefficient nH) for block of Nav1.7 peak INa	x0 of logistic fit (IC50) for block of Nav1.7 peak INa [μM]	SMILES
0.8788	0.7285	0.5358	0.2883	0.06853	0.9409	9.433	COc1ccccc1OC[C@@H](O)CN1CCN(CC(=O)Nc2c(C)cccc2C)CC1 [S-Ranolazine, (S)-(−)-N-(2,6-dimethylphenyl)-4-[2-hydroxy-3-(2-methoxyphenoxy)-propyl]-1-piperazineacetamide]
0.9252	0.8286	0.6336	0.2387	0.07855	1.212	11.33	COc1ccccc1OC[C@H](O)CN1CCN(CC(=O)Nc2c(C)cccc2C)CC1 [R-Ranolazine, (R)-(+)-N-(2,6-dimethylphenyl)-4-[2-hydroxy-3-(2-methoxyphenoxy)-propyl]-1-piperazineacetamide]
